Literature values as cited in patent publication EP1027077B1, “MAGNETIC RESONANCE IMAGING AGENTS FOR THE DELIVERY OF THERAPEUTIC AGENTS” (Research Corporation Technologies, Inc, priority 1997, dated 1999).

Details: thermodynamic stability of the Gd(III) chelate; background statement

Row | stability constant (K) / formation constant, logK | Compound
1 | 22.4 | O=C([O-])CN(CCN(CC(=O)[O-])CC(=O)[O-])CCN(CC(=O)[O-])CC(=O)[O-].[Gd+3] [Gd(DTPA)^2-]
2 | 28.5 | O=C([O-])CN1CCN(CC(=O)[O-])CCN(CC(=O)[O-])CCN(CC(=O)[O-])CC1.[Gd+3] [Gd-DOTA]
